What was measured:
TSLP [1] = assay: TSLP RNA level (Q-PCR) in skin and organs after topical application of NR agonists; assay type: in vivo, mouse; details: for effect on TSLP expression (Q-PCR) / increase in TSLP transcripts at D5: 4 nmoles in ethanol topically on whole ears of CD1 WT mice, D1 to D4, Q-PCR on day 5
Experimental: Four nmoles of ligands dissolved in ethanol were topically applied to whole ears of 6-8-week-old female CD1 wildtype (WT) mice for 4 consecutive days (D1 to D4), and TSLP RNA levels were determined on day 5.
1α,25-(OH)2D3, or MC903 and ethanol (vehicle) were applied to WT mouse right and left ears, respectively. Two shaved areas (1 cm^2 each) of dorsal skin were also treated with MC903 or ethanol.

[2] = system: ears of CD1 wildtype (WT) mice; assay: AD-like phenotype upon long-term ear topical treatment (appearance, histology, IHC); assay type: in vivo, mouse; details: topical treatment with the RAR agonist alone
[3] = system: MC903-induced TSLP expression; assay: RAR antagonist on MC903-induced TSLP RNA in ears; assay type: in vivo, mouse; details: BMS493 2.5 nmoles with MC903 1.25 nmoles, daily on ears of CD1 WT mice, D3
Experimental: The RAR antagonist BMS493 (2.5 nmoles) with ethanol and with or without MC903 (1.25 nmoles) was daily topically-applied to ears of 6-8-week-old female CD1 (WT) mice. TSLP RNA levels in the ears were measured at D3.

TSLP [4] = assay: TSLP RNA level (Q-PCR) in skin and organs after topical application of NR agonists; assay type: in vivo, mouse; details: for TSLP RNA levels in ears at D18: 0.25 nmole per ear every second day, WT mice; for dose dependence of TSLP transcripts: increasing doses (MC903: 0.4, 1 or 4 nmoles per ear)
[5] = system: ears of CD1 wildtype (WT) mice; assay: AD-like phenotype upon long-term ear topical treatment (appearance, histology, IHC); assay type: in vivo, mouse
Source text: White arrows point to the dermal/epidermal junction. FIGS. 2a and b show the ear appearance at day 17 after ethanol and MC903 treatment, respectively. FIGS. 2c and d show hematoxylin and eosin-stained (HE) ear sections of ethanol- and MC903-treated mice at day 17, respectively. Eosinophil-selective cytoplasmic red staining is pointed by arrows in the inset of (d). FIG. 2 u show hematoxylin and eosin-stained (HE) ear sections of ethanol- and 1α,25(OH)2D3 treated mice every second day, at a dose of 0.25 nmole, at day 18 (D18). FIGS. 2 e to n show the result of IHC performed on ear sections from ethanol- or MC903-treated mice at D17, with antibodies against GR1 (e and f), CD3 (g and h), CD4 (i and j), CD8 (k and l) and CD11c (m and n). Yellow color corresponds to staining of antibodies, whereas blue corresponds to DAPI staining of nuclei. FIGS. 2 o and p show the Toluidin blue (TB)-staining of ear sections. Red arrows point to one of the mast cells with intense blue color in the dermis.

[6] = Calcemia and overall health upon topical application; assay type: in vivo; details: 4 nmoles topically on ears, 4 consecutive days
Experimental: 1α,25-(OH)2D3, or MC903 and ethanol (vehicle) were applied to WT mouse right and left ears, respectively. Two shaved areas (1 cm^2 each) of dorsal skin were also treated with MC903 or ethanol. […]

CC1(C)CCC(C)(C)c2cc(C3(c4ccc(C(=O)O)cc4)OCCO3)ccc21 [BMS649]
effect on TSLP expression (Q-PCR) (TSLP [1]): no effect

CC1(C)CCC(C)(C)c2cc(C(O)C(=O)Nc3ccc(C(=O)O)cc3F)ccc21 (centres unmarked) [BMS961, R- and S-3-fluoro-4-[2-hydroxy-2-(5,5,8,8-tetramethyl-5,6,7,8,-tetrahydro-naphthalen-2-yl)-acetulamino]-benzoic acid]
increase in TSLP transcripts at D5 (TSLP [1]): 5 fold
TSLP transcripts upon application on mouse ear skin (TSLP [1]; topical application on mouse ear skin): significant increase
AD-like phenotype upon topical treatment on its own [2]: too low to trigger an overt AD-like phenotype

C[C@H](CCCC(C)(C)O)[C@H]1CC[C@H]2[C@@H]3CC=C4C[C@@H](O)CC[C@]4(C)[C@H]3CC[C@]12C [25-hydroxycholesterol]
effect on TSLP expression (Q-PCR) (TSLP [1]): no effect

CC1(C)CC=C(C#Cc2ccccc2)c2cc(/C=C/c3ccc(C(=O)O)cc3)ccc21 [BMS493, (E)-4-[2-[5,6-Dihydro-5,5-dimethyl-8-(2-phenylethynyl)naphthalene-2-yl]ethen-1-yl]benzoic Acid]
effect on MC903-induced TSLP expression [3]: down-regulates

CN(CCOc1ccc(CC2SC(=O)NC2=O)cc1)c1ccccn1 (centres unmarked) [Rosiglitazone]
effect on TSLP expression (Q-PCR) (TSLP [1]): no effect

C=C1/C(=C\C=C2/CCC[C@]3(C)[C@@H]([C@H](C)CCCC(C)(C)O)CC[C@@H]23)C[C@@H](O)C[C@@H]1O [1α,25-(OH)2D3, 1,25-Dihydroxyvitamin D3]
increase in TSLP transcripts at D5 (TSLP [1]): > 300 fold
TSLP RNA levels in ears at D18 (TSLP [4]): significantly induced
TSLP RNA levels in ears at D18 (TSLP [4]; listed as 1α,25(OH)2D3): increased
ear appearance ([5]; MC903 4 nmoles daily or 1α,25(OH)2D3 0.25 nmole every second day, from D5, D17): reddening and swelling, that worsened with time
ear histology (hematoxylin/eosin) ([5]; MC903 4 nmoles daily, D17, 1α,25-(OH)2D3 0.25 nmole every other day, D18): inflammatory infiltrate comprising CD4+ T lymphocytes, dendritic cells, eosinophils and mast cells
hypercalcemia and survival [6]: hypercalcemia and death of the mice

C=C1/C(=C\C=C2/CCC[C@]3(C)[C@@H]([C@@H](C)OCCCC(O)(CC)CC)CC[C@@H]23)C[C@@H](O)C[C@@H]1O [KH1060, 1α,25-(OH),-20-epi-22-oxa-24,26,27-trishomovitamin D]
dose dependence of TSLP transcripts (TSLP [4]): similarly observed

CC(C)OC(=O)C(C)(C)Oc1ccc(C(=O)c2ccc(Cl)cc2)cc1 [Fenofibrate]
effect on TSLP expression (Q-PCR) (TSLP [1]): no effect

Cc1cc(SCc2sc(-c3ccc(C(F)(F)F)cc3)nc2C)ccc1OCC(=O)O [GW501516]
effect on TSLP expression (Q-PCR) (TSLP [1]): no effect

C=C1/C(=C\C=C2/CCC[C@]3(C)[C@@H]([C@H](C)/C=C/C=C/C(O)(CC)CC)CC[C@@H]23)C[C@@H](O)C[C@@H]1O [EB1089, 1(S),3(R)-dihydroxy-20(R)-(5′-ethyl-5′-hydroxy-hepta-1′(E),3′(E)-dien-1′-yl)-9,10-secopregna-5(Z),7(E),10(19)-triene]
dose dependence of TSLP transcripts (TSLP [4]): similarly observed

Source: patent publication US20100144683A1, “METHODS FOR GENERATING MAMMALIAN MODELS OF ATOPIC DISEASES, AND SCREENING FOR THEIR TREATMENT” (ASSOCIATION POUR LA RECHERCHE A L'IGBMC (ARI), priority 2006, published 2010)
